Reference: US20170306042A1, “IMMUNOGENIC MODULATION BY ENDOCRINE DEPRIVATION THERAPY IMPROVES SENSITIVITY OF TUMOR CELLS TO IMMUNE MEDIATED LYSIS” (The United States of America, as represented by the …, priority 2014, published 2017)

Tests used:
BT549 (ER−AR+) cells [1] = experiment: Tumor cell proliferation, BT549; type: cell-based, human; conditions: 10 μM; 48 or 72 hours; P<0.01 vs vehicle; to a greater degree than ZR75-1
Experimental: At the indicated time points, cells were harvested and the number of viable cells was determined by trypan blue exclusion.

BT549 (ER−AR+) cells [2] = experiment: CEA-specific CTL lysis assay, BT549 targets; type: cell-based, human; conditions: 10 μM, E:T 30:1, vs vehicle, P<0.01
Experimental: (§1) The HLA-A2-restricted CEA-specific CTL recognizes the CEA peptide epitope […] (SEQ ID NO: 1) (CAP-1). […] The percentage of tumor lysis was calculated as follows: % tumor lysis=[(experimental cpm−spontaneous cpm)/(maximum cpm−spontaneous cpm)]×100.

LNCaP cells [3] = experiment: Apoptosis PCR array (96 genes) in LNCaP cells; type: cell-based, human
Experimental: The properties of ADT that induce immunogenic modulation and sensitize prostate tumor cells to immune-mediated attack are novel and have not been previously described. It was hypothesized that modulation of apoptotic genes might be part of the mechanism of action of ADT-induced CTL sensitization. […] In particular, gene expression was assessed using an apoptosis PCR array (SA Biosciences, Valencia, Calif.) as per the manufacturer's instructions. RT-PCR was performed on the 7300 Real-Time PCR System (Applied Biosystems, Carlsbad, Calif.). Where indicated, values were calculated as expression relative to GAPDH, as previously described (Ardiani et al., Cancer Res., 74(7): 1945-1957 (2014))

[4] = system: murine prostate carcinomas; conditions: cited from earlier work
LNCaP cells [5] = experiment: PSA-specific CD8+ T-cell killing, LNCaP targets; conditions: 10 μM, 48 hours, E:T 30:1, P<0.01
Experimental: At specific time points, cells were harvested and counted. Equal numbers of effector target cells from all treatment were plated with respective cytotoxic T-cells.

[6] = system: MDA MB 231 (ER−AR−) cells; experiment: Apoptosis PCR array (90 genes) in MDA MB 231 cells; type: cell-based, human; conditions: 24 hours, qRT-PCR
Experimental: Total RNA was isolated from the cells using the RNeasy Extraction Kit (Qiagen, Valencia, Calif.). RNA was reverse-transcribed into cDNA using the Advantage RT-for-PCR Kit (Clontech, Mountain View, Calif.). cDNA (10 ng) was used in a quantitative real-time (RT) PCR reaction using probes specific for AR (Hs00901571_m1) and GAPDH (4326317E). AR mRNA expression level was calculated as expression relative to GAPDH. […] Total RNA was isolated from the cells using the RNeasy Extraction Kit. RNA was reverse-transcribed into cDNA using the RT^2 First Strand Kit (SA Biosciences, Valencia, Calif.). Relative mRNA expression levels of 90 genes involved in apoptosis were assessed using an apoptosis PCR array (SA Biosciences) per the manufacturer's instructions. RT-PCR was performed on the 7300 Real-Time PCR System (Applied Biosystems, Carlsbad, Calif.).
OPG is a decoy receptor for receptor activator of nuclear factor kappa-B ligand (RANKL) which inhibits RANKL activation of nuclear factor kappa-B induced apoptosis.

ZR75-1 (ER+AR+) cells = experiment: CEA-specific CTL lysis assay, ZR75-1 targets; type: cell-based, human; conditions: 10 μM, E:T 30:1, vs vehicle
Experimental: as §1
These cells were then used as target cells for CTL-mediated killing assays utilizing CEA-specific CTLs.

MDA MB 231 cells = conditions: 10 μM, 48 hours
Experimental: After 48 hours, cells were harvested and stained with the following antibodies: HLA A2-PE-Cy7, MUC-1-FITC, CD54-BV421, CD95-FITC (BD Biosciences, San Jose, Calif.), CEA-APC (Miltenyi Biotec, Auburn, Calif.), TRAIL receptor 1 and TRAIL receptor 2 (R & D Systems, Minneapolis, Minn.). LIVE/DEAD Fixable Violet Dead Cell Stain (Life Technologies, Grand Island, N.Y.) was used to determine cell viability. Cells were incubated with the antibodies for 30 min at 4° C., acquired on a FACS Verse flow cytometer (Becton Dickinson, Franklin Lakes, N.J.), and analyzed using FlowJo software (TreeStar, Inc., Ashland, Oreg.).

LNCaP cells [7] = experiment: CEA- or PSA-specific CD8+ T-cell killing, LNCaP targets; type: cell-based, human; conditions: 10 μM, 48 hours, P<0.01
[8] = system: castration resistant prostate cancer; conditions: AFFIRM trial (Scher et al. 2012); cited from earlier work
LNCaP/AR(cs) cells = experiment: CEA- or PSA-specific CD8+ T-cell killing, LNCaP/AR(cs) targets; type: cell-based, human
[9] = apoptosis PCR array, negative = down-regulated

For enzalutamide, the “proliferation of BT549 cells” value (BT549 (ER−AR+) cells [1]) was “significantly inhibited the proliferation”, the “sensitivity to CEA-specific CTL-mediated lysis” value (BT549 (ER−AR+) cells [2]) was “significantly improved their sensitivity” and the “CASP1 (Caspase 1) gene expression change” value (LNCaP cells [3]; [9]) was −2.17 fold. The “CASP5 gene expression change” value (LNCaP cells [3]; [9]) was −3.50 fold, the “CASP8 gene expression change” value (LNCaP cells [3]; [9]) was −2.96 fold and the “CD27 gene expression change” value (LNCaP cells [3]; [9]) was −2.26 fold. For the same substance, the “DAPK1 gene expression change” value (LNCaP cells [3]; [9]) was −6.53 fold, the “HRK gene expression change” value (LNCaP cells [3]; [9]) was −2.86 fold and the “NAIP gene expression change” value (LNCaP cells [3]; [9]) was −13.90 fold. The “TNFRSF25 (DR3) gene expression change” value (LNCaP cells [3]; [9]) was −3.70 fold, the “TNFSF8 gene expression change” value (LNCaP cells [3]; [9]) was −3.50 fold and the DAPK1 down-regulated (LNCaP cells [3]; rounded from Table 1) was 6.5 fold. For the same substance, the NAIP down-regulated (LNCaP cells [3]; rounded from Table 1) was 14 fold, the “number or function of T-cells” value ([4]; Ardiani et al. 2013) was “did not alter the number or function of T-cells” and the “MHC-I and Fas on the surface of tumor cells” value ([4]; murine prostate carcinomas (Ardiani et al. 2013)) was “up-regulated MHC-I and Fas”. For the same substance, the “sensitivity to PSA-specific T-cell killing” value (LNCaP cells [5]) was “significantly improved their sensitivity”, the “osteoprotegerin (OPG) gene down-regulated” value [6] was ~25 fold and the “sensitivity to CEA-specific CTL-mediated lysis” value (ZR75-1 (ER+AR+) cells) was “significantly enhanced their sensitivity”. For the same substance, the “cell-surface markers with increased expression” value (MDA MB 231 cells; MDA MB 231 (ER−AR−)) was “upregulated CEA, ICAM-1 and Trail receptors 1/2”, the “CEA mean fluorescence intensity” value (MDA MB 231 cells; MDA MB 231) was 626 and the CEA percent positivity (MDA MB 231 cells; MDA MB 231) was 9.7%. The “Fas mean fluorescence intensity” value (MDA MB 231 cells; MDA MB 231) was 375, the Fas percent positivity (MDA MB 231 cells; MDA MB 231) was 9.0% and the “HLA A2 mean fluorescence intensity” value (MDA MB 231 cells; MDA MB 231) was 21175. The “HLA A2 percent positivity” value (MDA MB 231 cells; MDA MB 231) was 96.4%, the “ICAM-1 mean fluorescence intensity” value (MDA MB 231 cells; MDA MB 231) was 7254 and the ICAM-1 percent positivity (MDA MB 231 cells; MDA MB 231) was 95.3%. For the same substance, the “MUC-1 mean fluorescence intensity” value (MDA MB 231 cells; MDA MB 231) was 503, the “Trail R1 mean fluorescence intensity” value (MDA MB 231 cells; MDA MB 231) was 1125 and the “Trail R1 percent positivity” value (MDA MB 231 cells; MDA MB 231) was 19.2%. The “Trail R2 mean fluorescence intensity” value (MDA MB 231 cells; MDA MB 231) was 1516, the “sensitivity to T-cell killing” value (LNCaP cells [7]) was “significantly improved the cells' sensitivity” and the “advantage in overall survival compared to placebo” value [8] was 4.8 month. For the same substance, the “sensitivity to T-cell killing” value (LNCaP/AR(cs) cells; 10 μM, CEA- or PSA-specific CD8+ T-cells, P<0.01) was “significantly improved the cells' sensitivity” and the “sensitivity to T-cell killing” value (LNCaP/AR(cs) cells; 30 μM, P<0.01, no significant difference to 10 μM) was “significantly improved the cells' sensitivity”.
